Columns and labels:
Assay type in all cases: biochemical
neutrophil elastase = target: T1, neutrophil elastase (Homo sapiens, UniProt P08246); assay: Inhibition of neutrophil elastase, additional peptide inhibitors preincubated in phosphate buffer (Table 3); parameters: Neutrophil elastase was prepared by the procedure described by Baugh. et al; from tissue
T1 sequence (P08246 30-267): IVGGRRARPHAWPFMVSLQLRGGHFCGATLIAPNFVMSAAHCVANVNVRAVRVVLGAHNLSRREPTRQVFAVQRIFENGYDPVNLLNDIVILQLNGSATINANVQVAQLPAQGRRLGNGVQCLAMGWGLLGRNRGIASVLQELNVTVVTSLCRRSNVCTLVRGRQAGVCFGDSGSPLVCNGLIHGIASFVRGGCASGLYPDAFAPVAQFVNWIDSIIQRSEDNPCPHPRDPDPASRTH
Description: Additional peptide inhibitors were evaluated by a procedure similar to that described above. Stock solutions of inhibitors (1.00 mM) were prepared in dimethylsulfoxide and compounds were diluted to 0.10 mM with […], pH 7.5, yielding the free boronic acid. After incubation for one hour at about 23°, inhibitors were added to assay solutions (2.00 mL) consisting of […] MeOSuc-Ala-AlaProVal-p-nitroanilide in 0.10M Hepes buffer, pH 7.5, containing 0.50M NaCl. Assays were initiated by addition of 0.50 μg neutrophil elastase. Control assays without inhibitor indicated an initial velocity of 0.0195 min^-1. The value "k" in Table 3, below, is an estimate of the first order rate constant for time-dependent inhibition, as described above for MeOSuc-AlaAlaPro-Boroval-OH (Table 1).

porcine pepsin = porcine pepsin (Sus scrofa, UniProt P00791); assay: Inhibition of pepsin; conditions: Conc. 5.0 × 10^-4 M
Sequence of porcine pepsin (P00791 60-385): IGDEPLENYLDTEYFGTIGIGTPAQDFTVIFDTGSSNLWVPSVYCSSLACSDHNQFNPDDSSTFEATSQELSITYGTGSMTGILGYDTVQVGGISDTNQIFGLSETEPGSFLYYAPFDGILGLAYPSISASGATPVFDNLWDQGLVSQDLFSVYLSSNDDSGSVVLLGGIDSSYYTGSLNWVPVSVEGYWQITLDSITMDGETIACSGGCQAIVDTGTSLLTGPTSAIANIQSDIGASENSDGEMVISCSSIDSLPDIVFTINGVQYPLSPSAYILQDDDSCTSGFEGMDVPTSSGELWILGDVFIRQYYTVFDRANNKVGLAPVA
Description: Pepsin activity was assayed by a procedure substantially similar to that described by Rich, et al., Biochem. Pharmac. 29:2205 (1980). Substrate, […].2 trifluoroacetate, and porcine pepsin were obtained from commercial sources. Assay solutions, in a volume of 2.00 mL, contained 2.0×10^-4 M substrate in 0.040M sodium formate buffer, pH 4.0, and 0.050 mL of inhibitor solutions in dimethylsulfoxide. Assays were initiated by addition of 0.020 mL of pepsin (0.10 mg/mL), and hydrolysis of substrate was monitored by measuring the increase in absorbance at 310 nm on a spectrophotometer.

thermolysin = target: T2, thermolysin (Bacillus thermoproteolyticus, UniProt P00800); assay: Inhibition of thermolysin; conditions: Conc. 5.0 × 10^-4 M
T2 construct: purchased
T2 sequence (P00800 233-548): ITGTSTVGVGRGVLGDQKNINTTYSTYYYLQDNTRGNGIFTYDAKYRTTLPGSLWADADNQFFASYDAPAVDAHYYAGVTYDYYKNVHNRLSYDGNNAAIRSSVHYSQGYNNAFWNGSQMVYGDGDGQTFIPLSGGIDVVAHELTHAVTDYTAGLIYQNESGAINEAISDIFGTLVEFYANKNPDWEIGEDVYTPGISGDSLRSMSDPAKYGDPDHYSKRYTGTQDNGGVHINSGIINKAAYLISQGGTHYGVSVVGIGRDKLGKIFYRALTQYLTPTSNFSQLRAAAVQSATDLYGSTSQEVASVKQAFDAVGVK
Description: The metalloenzyme thermolysin was assayed by a procedure substantially similar to that described by Feder et al., Biochemistry 9:2784 (1970). Substrate, furylacryloyl-glycyl-leucinamide, and thermolysin were obtained from commercial sources. Assay solutions consisted of furylacryloyl-glycyl-leucinamide (0.100 mL, 8.0×10^-3 M in N,N-dimethylformamide) and 1.90 mL of 0.50M Tris buffer, pH 7.5, containing 0.10M NaCl and 0.010M CaCl2. Either 0.100 mL of dimethylsulfoxide or 0.100 mL of dimethylsulfoxide containing inhibitor was added and the reaction was initiated by the addition of 0.020 mL of thermolysin (1.0 mg/mL). The rate of hydrolysis was monitored by measuring the decrease in absorbance at 345 nm.

[1] = target: Porcine pancreatic elastase (Sus scrofa, UniProt P00772); assay: Inhibition of pancreatic elastase
Sequence of Porcine pancreatic elastase (P00772 27-266): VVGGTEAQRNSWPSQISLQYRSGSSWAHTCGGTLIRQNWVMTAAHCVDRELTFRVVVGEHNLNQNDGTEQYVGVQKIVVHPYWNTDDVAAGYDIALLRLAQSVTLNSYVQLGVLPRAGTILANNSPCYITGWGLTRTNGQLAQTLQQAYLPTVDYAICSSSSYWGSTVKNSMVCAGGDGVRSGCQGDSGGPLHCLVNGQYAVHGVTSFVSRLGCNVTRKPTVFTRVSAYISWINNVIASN
Description: Porcine pancreatic elastase (9.8 U/mg.) was obtained from commercial sources. […] Reactions were initiated by addition of 0.5 μg of elastase in 0.020 mL of 0.020M sodium acetate buffer, pH 6.0, and hydrolysis of substrate was monitored spectrophotometrically at 405 nm at 25° C. Assay results are set forth in Table 4, below, expressed as percentages of activity of control mixtures to which no inhibitor was added: […]

α-chymotrypsin = target: T3, α-chymotrypsin (Bos taurus, UniProt P00766); assay: Titration of α-chymotrypsin
T3 construct: purchased
Description: In these experiments, α-chymotrypsin, obtained from commercial sources, was standardized by titration with various concentrations of MeOSuc-AlaAlaPro-Borophe-diethanolamine. In each case, enzyme was incubated with inhibitor for 5 minutes at 23°, in 0.01M Hepes buffer, pH 7.5, containing 0.50M NaCl and 10% dimethylsulfoxide. Aliquots were then removed and assayed for enzyme activity.

Compound: COC(=O)CCC(=O)N[C@@H](Cc1ccccc1)C(=O)NCC(=O)N[C@@H](CO)C(=O)NC(B(O)O)C(C)C (stereo partly shown) [MeOSuc--Phe--Gly--Ser--Boroval--OH]
- % Initial Activity (neutrophil elastase; Conc. 5.0 × 10^-7 M): 78%
- k, first order rate constant for time-dependent inhibition (neutrophil elastase; Conc. 5.0 × 10^-7 M): 0.26 min⁻¹

Compound: CC(C)C(NC(=O)C1CCCN1C(=O)C(Cc1ccccc1)NC(=O)OC(C)(C)C)B(O)O [Boc--D-Phe--Pro--Boroval--OH]
- % Initial Activity (neutrophil elastase; Conc. 2.0 × 10^-7 M): 54%
- k, first order rate constant for time-dependent inhibition (neutrophil elastase; Conc. 2.0 × 10^-7 M): 0.35 min⁻¹

Compound: CC(C)CC(NC(=O)CNC(=O)OC(C)(C)C)B1OC(C)(C)C(C)(C)O1 (stereo not drawn) [Boc--Gly--Boroleu--pinacol, Boc-Gly-Boroleu-pinacol]
- % Activity (porcine pepsin): 87%

Compound: COC(=O)CCC(=O)NC(Cc1ccccc1)C(=O)NCC(=O)NC(CCC(=O)O)C(=O)NC(B(O)O)C(C)C (stereo not shown) [MeOSuc--Phe--Gly--Glu--Boroval--OH]
- % Initial Activity (neutrophil elastase; Conc. 1.0 × 10^-6 M): 52%
- k, first order rate constant for time-dependent inhibition (neutrophil elastase; Conc. 1.0 × 10^-6 M): 0.18 min⁻¹

Compound: CC(C)CC(NC(=O)CNC(=O)OC(C)(C)C)B1OCCNCCO1 (stereo not drawn) [Boc--Gly--Boroleu--diethanolamine, Boc-Gly-Boroleu-diethanolamine]
- % Activity (porcine pepsin): 90%

Compound: CC(C)C(NC(=O)C(CO)NC(=O)CNC(=O)C(N)Cc1ccccc1)B(O)O (stereo not shown) [H--Phe--Gly--Ser--Boroval--OH]
- % Initial Activity (neutrophil elastase; Conc. 1.0 × 10^-6 M): 75%

Compound: CC(C)C(NC(=O)C(CCC(=O)O)NC(=O)CNC(=O)C(N)Cc1ccccc1)B(O)O (stereo not shown) [H--Phe--Gly--Glu--Boroval--OH]
- % Initial Activity (neutrophil elastase; Conc. 2.0 × 10^-6 M): 54%

Compound: CC(C)CC(NC(=O)CNC(=O)C(Cc1ccccc1)NC(=O)OC(C)(C)C)B1OCCNCCO1 (stereo not shown) [Boc--Phe--Gly--Boroleu--diethanolamine, Boc-PheGly-Boroleu-diethanolamine]
- % Activity (porcine pepsin): 71%

Compound: CC(C)CC(NC(=O)CNC(=O)C(Cc1ccccc1)NC(=O)OCc1ccccc1)C(=O)NC(B(O)O)C(C)C (stereo not shown) [Z--Phe--Gly--Leu--Boroval--OH]
- % Initial Activity (neutrophil elastase; Conc. 2.0 × 10^-7 M): 62%
- k, first order rate constant for time-dependent inhibition (neutrophil elastase; Conc. 2.0 × 10^-7 M): 0.26 min⁻¹

Compound: CC(C)C(NC(=O)C(CCC(=O)OCc1ccccc1)NC(=O)CNC(=O)C(Cc1ccccc1)NC(=O)OCc1ccccc1)B(O)O (stereo not shown) [Z--Phe--Gly--Glu(OBzl)--Boroval--OH]
- % Initial Activity (neutrophil elastase; Conc. 1.0 × 10^-7 M): 61%
- k, first order rate constant for time-dependent inhibition (neutrophil elastase; Conc. 1.0 × 10^-7 M): 0.20 min⁻¹

Compound: CC(C)CC(NC(=O)CNC(=O)C(Cc1ccccc1)NC(=O)OC(C)(C)C)B1OC(C)(C)C(C)(C)O1 (stereo not shown) [Boc--Phe--Gly--Boroleu--pinacol, Boc-PheGly-Boroleu-pinacol]
- % Activity (porcine pepsin): 68%

Compound: CC(NC(=O)C1CCCN1C(=O)C(Cc1ccccc1)NC(=O)OCc1ccccc1)C(=O)NC(B(O)O)C(C)C (stereo not shown) [Z--Phe--Pro--Ala--Boroval--OH]
- % Initial Activity (neutrophil elastase; Conc. 4.0 × 10^-6 M): 51%

Compound: CC(C)C(NC(=O)C(COCc1ccccc1)NC(=O)CNC(=O)C(Cc1ccccc1)NC(=O)OCc1ccccc1)B(O)O (stereo not shown) [Z--Phe--Gly--Ser(OBzl)--Boroval--OH]
- % Initial Activity (neutrophil elastase; Conc. 1.25 × 10^-7 M): 66%
- k, first order rate constant for time-dependent inhibition (neutrophil elastase; Conc. 1.25 × 10^-7 M): 0.17 min⁻¹

Compound: CC(NC(=O)C(C)NC(=O)OC(C)(C)C)B1OC(C)(C)C(C)(C)O1 (stereo not drawn) [Boc--Ala--Boroala--pinacol, Boc-Ala-Boroala-pinacol]
- % Activity (porcine pepsin): 90%
- % Activity (thermolysin): 102%

Compound: COC(=O)CCC(=O)N[C@@H](C)C(=O)N[C@@H](C)C(=O)N1CCC[C@H]1C(=O)NC(C)B1OCCNCCO1 (stereo partly shown) [MeOSuc-AlaAlaPro-Boroala-diethanolamine]
- capacity for inhibition of pancreatic elastase, crystalline versus amorphous sample ([1]; crystalline sample relative to amorphous sample of Example 9): at least 5 fold

Compound: CCC(C)C(NC(=O)C1CCCN1C(=O)C(C)NC(=O)C(C)NC(=O)CCC(=O)OC)B(O)O (stereo not shown) [MeOSuc--Ala--Ala--Pro--Boroile--OH]
- % Initial Activity (neutrophil elastase; Conc. 1.0 × 10^-7 M): 60%
- k, first order rate constant for time-dependent inhibition (neutrophil elastase; Conc. 1.0 × 10^-7 M): 0.28 min⁻¹

Compound: COC(=O)CCC(=O)NC(CCCCNC(=O)OCc1ccccc1)C(=O)NC(C)C(=O)N1CCCC1C(=O)NC(B(O)O)C(C)C (stereo not shown) [MeOSuc--Lys(Z)--Ala--Pro--Boroval--OH, MeOSuc--Lys(Z)--AlaPro--Boroval--OH]
- % Initial Activity (neutrophil elastase; Conc. 5.0 × 10^-8 M): 59%
- k, first order rate constant for time-dependent inhibition (neutrophil elastase; Conc. 5.0 × 10^-8 M): 0.54 min⁻¹

Compound: CC(C)C(NC(=O)C(CCCCN)NC(=O)CNC(=O)C(Cc1ccccc1)NC(=O)OCc1ccccc1)B(O)O (stereo not shown) [Z--Phe--Gly--Lys--Boroval--OH]
- % Initial Activity (neutrophil elastase; Conc. 2.5 × 10^-7 M): 67%
- k, first order rate constant for time-dependent inhibition (neutrophil elastase; Conc. 2.5 × 10^-7 M): 0.28 min⁻¹

Compound: CC(C)C(NC(=O)C(Cc1ccccc1)NC(=O)CNC(=O)C(Cc1ccccc1)NC(=O)OCc1ccccc1)B(O)O (stereo not shown) [Z--Phe--Gly--Phe--Boroval--OH]
- % Initial Activity (neutrophil elastase; Conc. 2.0 × 10^-7 M): 47%
- k, first order rate constant for time-dependent inhibition (neutrophil elastase; Conc. 2.0 × 10^-7 M): 0.18 min⁻¹

Compound: COC(=O)CCC(=O)NC(C)C(=O)NC(C)C(=O)N1CCCC1C(=O)NC(Cc1ccccc1)B1OCCNCCO1 (stereo not shown) [MeOSuc-AlaAlaPro-Borophe-diethanolamine]
- % Activity (α-chymotrypsin; α-chymotrypsin 3 μg/mL, inhibitor 25 nM): 68.2%
- % Activity (α-chymotrypsin; α-chymotrypsin 3 μg/mL, inhibitor 50 nM): 52.3%
- % Activity (α-chymotrypsin; α-chymotrypsin 3 μg/mL, inhibitor 75 nM): 31.8%
- % Activity (α-chymotrypsin; α-chymotrypsin 3 μg/mL, inhibitor 100 nM): 18.2%
- % Activity (α-chymotrypsin; α-chymotrypsin 15 μg/mL, inhibitor 50 nM): 93.8%
- % Activity (α-chymotrypsin; α-chymotrypsin 15 μg/mL, inhibitor 100 nM): 80.4%
- % Activity (α-chymotrypsin; α-chymotrypsin 15 μg/mL, inhibitor 200 nM): 65.1%
- % Activity (α-chymotrypsin; α-chymotrypsin 15 μg/mL, inhibitor 300 nM): 47.9%
- % Activity (α-chymotrypsin; α-chymotrypsin 15 μg/mL, inhibitor 400 nM): 31.6%
- % Activity (α-chymotrypsin; α-chymotrypsin 15 μg/mL, inhibitor 500 nM): 15.3%

Compound: CC(C)C(NC(=O)C(CCCCNC(=O)OC(C)(C)C)NC(=O)CNC(=O)C(Cc1ccccc1)NC(=O)OCc1ccccc1)B(O)O (stereo not shown) [Z--Phe--Gly--Lys(Boc)--Boroval--OH]
- % Initial Activity (neutrophil elastase; Conc. 2.0 × 10^-7 M): 55%
- k, first order rate constant for time-dependent inhibition (neutrophil elastase; Conc. 2.0 × 10^-7 M): 0.37 min⁻¹

Compound: CC(NC(=O)C(C)NC(=O)OC(C)(C)C)B1OCCNCCO1 (stereo not drawn) [Boc--Ala--Boroala--diethanolamine, Boc-Ala-Boroala-diethanolamine]
- Activity % of Control ([1]; inhibitor 5.0 × 10^5 nM, 1.0 min, time dependency not observed): 67 % of Control
- % Activity (porcine pepsin): 85%
- % Activity (thermolysin): 99%

Compound: CC(C)C[C@H](NC(=O)CNC(=O)[C@@H](N)Cc1ccccc1)B1OC(C)(C)C(C)(C)O1.O=C(O)C(F)(F)F [H--Phe--Gly--Boroleu--pinacol, H-PheGly-Boroleu-pinacol.trifluoroacetate]
- % Activity (porcine pepsin): 69%

Source: patent US4499082A, “α-Aminoboronic acid peptides” (E. I. Du Pont de Nemours and Company, priority 1983, dated 1985)
